Assay results: ChEMBL document CHEMBL6153123, “Discovery of Potent and Brain-Penetrant Bicyclic NLRP3 Inhibitors with Peripheral and Central In Vivo Activity” (J Med Chem, 2025)

What was measured:
in vitro = details: dog, MDCK-MDR1
physchem = details: buffer, pH 7.4
in vivo = details: male, CD1, mouse, brain and plasma, po

Compound | Papp A→B (in vitro) [×10⁻⁶ cm/s] | chromatographic logD (physchem) | Kp uu (in vivo)
CN1C[C@H](Nc2nnc(-c3ccc(C(F)(F)F)cc3O)c3ccnn23)CC(F)(F)C1 | 13 | 3.85 | –
Cc1cc(C(F)(F)F)cc(O)c1-c1nnc(N[C@@H]2CCCN(C)C2)n2nccc12 | 26 | 1.73 | 0.056
